IC50 data for 25 molecules are collected here from patent US20250186391A1, “ORAL COMPLEMENT FACTOR D INHIBITORS” (BioCryst Pharmaceuticals, Inc., priority 2019, published 2025).

pIC50: −log10 of the molar value.

Chain of Factor D (P00746 26-253): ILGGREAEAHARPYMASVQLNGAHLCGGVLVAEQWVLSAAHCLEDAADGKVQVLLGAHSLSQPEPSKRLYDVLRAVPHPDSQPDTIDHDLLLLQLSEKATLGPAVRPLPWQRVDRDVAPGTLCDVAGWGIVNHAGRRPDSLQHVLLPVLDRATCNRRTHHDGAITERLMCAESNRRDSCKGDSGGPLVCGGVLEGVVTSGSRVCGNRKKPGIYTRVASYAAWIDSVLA

The experiment concerns the target Factor D (Homo sapiens (Human), UniProt P00746). As to the kind of experiment: Factor D esterolytic assay. The class given is biochemical. Particulars: Z-Lys-SBzl substrate, 100 mM HEPES, 500 mM NaCl, pH 7.5, 10% DMSO; tested a minimum of three times; read-out: Measured Ki (IC50) Value for Compounds: IC50. In a few lines:
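Chromogenic thioesterase read-out: Z-Lys-SBzl (1.29 mM) hydrolysis by human Factor D, thiol detected with DTNB at 405 nm (690 nm background subtracted) for 600 s. Run in 100 mM HEPES, 500 mM NaCl, pH 7.5, 10% DMSO, substrate added immediately or after room-temperature preincubation. IC50 from percent inhibition versus enzyme alone, n≥3.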
`NCc1cccc(-c2cc(CNCC3CC3)c3occ(COc4ccccc4CC(=O)O)c3c2)c1` [Compound 209c, 2-(2-((5-(3-(aminomethyl)phenyl)-7-(((cyclopropylmethyl)amino)methyl)benzofuran-3-yl)methoxy)phenyl)acetic acid]: the pIC50 (commonly the IC50 on a negative log10 scale, so that one unit is a factor of ten) was > 6.00. In the case of `N[C@H](CO)c1cccc(-c2ccc3occ(COc4ccccc4CC(=O)O)c3c2)c1` [Compound 51c, (S)-2-(2-((5-(3-(1-amino-2-hydroxyethyl)phenyl)benzofuran-3-yl)methoxy)phenyl)acetic acid] it was > 6.00; in that of `CC(C)n1nc(COc2ccccc2CC(=O)O)c2cc(-c3cccc(CN)c3O)ccc21` [Compound 318f, 2-(2-((5-(3-(aminomethyl)-2-hydroxyphenyl)-1-isopropyl-1H-indazol-3-yl)methoxy)phenyl)acetic acid], > 6.00; in that of `NCc1cccc(-c2cc(NCC3CC3)c3occ(COc4ccccc4CC(=O)O)c3c2)c1` [Compound 85c, 2-(2-((5-(3-(aminomethyl)phenyl)-7-((cyclopropylmethyl)amino)benzofuran-3-yl)methoxy)phenyl)acetic acid], > 6.00. As to `COc1ccc(CC(=O)O)c(OCc2c(C(C)C)oc3ccc(-c4cccc(CN)c4)cc23)c1` [Compound 169c, 2-(2-((5-(3-(aminomethyl)phenyl)-2-isopropylbenzofuran-3-yl)methoxy)-4-methoxyphenyl)acetic acid], the pIC50 was > 6.00.

Consider `COc1cccc(OCc2coc3ccc(-c4cccc(CN)c4)cc23)c1CC(=O)O` [Compound 109d, 2-(2-((5-(3-(aminomethyl)phenyl)benzofuran-3-yl)methoxy)-6-methoxyphenyl)acetic acid], for which the pIC50 is 5.00 to 6.00.

Turning to `NCc1cccc(-c2cc(NC[C@@H]3CCCO3)c3occ(COc4ccccc4CC(=O)O)c3c2)c1` [Compound 275d, (S)-2-(2-((5-(3-(aminomethyl)phenyl)-7-(((tetrahydrofuran-2-yl)methyl)amino)benzofuran-3-yl)methoxy)phenyl)acetic acid], the pIC50 was > 6.00. In the case of `CCCc1oc2ccc(-c3cccc(CN)c3F)cc2c1COc1cc(OC)ccc1CC(=O)O` [Compound 297b, 2-(2-((5-(3-(aminomethyl)-2-fluorophenyl)-2-propylbenzofuran-3-yl)methoxy)-4-methoxyphenyl)acetic acid] it was > 6.00; in that of `COc1ccc(CC(=O)O)c(OCc2nn(C(C)C)c3ccc(-c4cccc(CN)c4)cc23)c1` [Compound 213c, 2-(2-((5-(3-(aminomethyl)phenyl)-1-isopropyl-1H-indazol-3-yl)methoxy)-4-methoxyphenyl)acetic acid], > 6.00.

Consider `NCc1cccc(-c2cc(F)cc3cc(COc4ccccc4CC(=O)O)oc23)c1` [Compound 31f, 2-(2-((7-(3-(aminomethyl)phenyl)-5-fluorobenzofuran-2-yl)methoxy)phenyl)acetic acid], for which the pIC50 is > 6.00. In the case of `COc1c(CN)cccc1-c1cc2c(COc3ccccc3CC(=O)O)cccc2o1` [Compound 300d, 2-(2-((2-(3-(aminomethyl)-2-methoxyphenyl)benzofuran-4-yl)methoxy)phenyl)acetic acid] it was 5.00 to 6.00; in that of `Cn1nc(COc2ccccc2CC(=O)O)c2cc(-c3cccc(CN)c3)c3occc3c21` [Compound 3021, 2-(2-((5-(3-(aminomethyl)phenyl)-1-methyl-1H-furo[2,3-g]indazol-3-yl)methoxy)phenyl)acetic acid], > 6.00. With `CC(C)n1nc(COc2ccccc2C(=O)O)c2cc(-c3cccc(CN)c3)ccc21` [Compound 299d, 2-((5-(3-(aminomethyl)phenyl)-1-isopropyl-1H-indazol-3-yl)methoxy)benzoic acid] the figure was > 6.00. For the molecule `NCc1cccc(-c2cc3c(COc4ccccc4CC(=O)O)coc3c3occc23)c1` [Compound 229g, 2-(2-((5-(3-(aminomethyl)phenyl)benzo[1,2-b:6,5-b′]difuran-3-yl)methoxy)phenyl)acetic acid], the pIC50 is > 6.00. With `NCc1cccc(-c2ccc3occ(COc4ccccc4C(=O)O)c3c2)c1` [Compound 1f, 2-((5-(3-(aminomethyl)phenyl)benzofuran-3-yl)methoxy)benzoic acid] the figure was > 6.00. With `NCc1cccc(-c2cc(COc3ccccc3CC(=O)O)cc3cc(COc4ccccc4CC(=O)O)oc23)c1` [Compound 7f, 2,2′-((((7-(3-(aminomethyl)phenyl)benzofuran-2,5-diyl)bis(methylene))bis(oxy))bis(2,1-phenylene))diacetic acid] the figure was > 6.00. With `NCc1cccc(-c2ccc3c(c2)c(COc2ccccc2CC(=O)O)nn3-c2cccnc2)c1` [Compound 264c, 2-(2-((5-(3-(aminomethyl)phenyl)-1-(pyridin-3-yl)-1H-indazol-3-yl)methoxy)phenyl)acetic acid] the figure was > 6.00; with `NCc1cccc(-c2ccc3c(c2)c(COc2ccccc2CC(=O)O)nn3C2CC2)c1` [Compound 260c, 2-(2-((5-(3-(aminomethyl)phenyl)-1-cyclopropyl-1H-indazol-3-yl)methoxy)phenyl)acetic acid], > 6.00. On to `Cc1ccc(CC(=O)O)c(OCc2nn(C)c3ccc(-c4cccc(CN)c4)cc23)c1` [Compound 206c, 2-(2-((5-(3-(aminomethyl)phenyl)-1-methyl-1H-indazol-3-yl)methoxy)-4-methylphenyl)acetic acid], for which the pIC50 is > 6.00. In the case of `COc1ccc(OCc2coc3ccc(-c4cccc(CN)c4)cc23)c(CC(=O)O)c1` [Compound 106c, 2-(2-((5-(3-(aminomethyl)phenyl)benzofuran-3-yl)methoxy)-5-methoxyphenyl)acetic acid] it was > 6.00; in that of `CCNc1cc(-c2cccc(CN)c2)cc2c(COc3ccccc3CC(=O)O)coc12` [Compound 150d, 2-(2-((5-(3-(aminomethyl)phenyl)-7-(ethylamino)benzofuran-3-yl)methoxy)phenyl)acetic acid], > 6.00. In the case of `COc1ccc(CC(=O)O)c(OCc2c(-c3ccc(F)cc3)oc3ccc(-c4cccc(CN)c4)cc23)c1` [Compound 168c, 2-(2-((5-(3-(aminomethyl)phenyl)-2-(4-fluorophenyl)benzofuran-3-yl)methoxy)-4-methoxyphenyl)acetic acid] it was > 6.00. In the case of `CCc1ccc(CC(=O)O)c(OCc2coc3ccc(-c4cccc(CN)c4F)cc23)c1` [Compound 12g, 2-(2-((5-(3-(aminomethyl)-2-fluorophenyl)benzofuran-3-yl)methoxy)-4-ethylphenyl)acetic acid] it was > 6.00; in that of `Cc1ccc(S(=O)(=O)n2cc(COc3ccccc3CC(=O)O)c3cc(-c4cccc(CN)c4)ccc32)cc1` [Compound 66f, 2-(2-((5-(3-(aminomethyl)phenyl)-1-tosyl-1H-indol-3-yl)methoxy)phenyl)acetic acid], > 6.00.

As for `COc1ccc(CC(=O)O)c(OCc2c(C(F)F)oc3ccc(-c4cccc(CN)c4)cc23)c1` [Compound 215d, 2-(2-((5-(3-(aminomethyl)phenyl)-2-(difluoromethyl)benzofuran-3-yl)methoxy)-4-methoxyphenyl)acetic acid], the pIC50 is > 6.00.
